Here are results for four compounds from US10323001B2, “Compositions for modulating a kinase cascade and methods of use thereof” (Athenex, Inc., priority 2006, dated 2019).

Where two headings read alike, the source gives them in different places.

Data set [1] is described as follows: Moisture-sorption analysis (Hiden IGAsorp). In kind it is physicochemical. Conditions: 90% RH, 25° C. As to the method: Moisture-sorption experiments were performed using a Hiden IGAsorp Moisture Sorption instrument on KX2-391.MSA obtained in accordance with the process of the present invention (Example 4). First, the sample was dried at 0% Relative Humidity (RH) and 25° C. until an equilibrium weight was reached or for a maximum of four hours. The sample was then subjected to an isothermal (25° C.) adsorption scan from 10 to 90% RH in steps of 10%. The sample was allowed to equilibrate to an asymptotic weight at each point for a maximum of four hours. Following adsorption, a desorption scan from 85 to 0% RH (at 25° C.) was run in steps of −10% again allowing a maximum of four hours for equilibration to an asymptotic weight. The sample was then dried for one hour at 80° C. and the resulting solid analyzed by XRPD. […] FIG. 10 depicts percent change of water content as a function of relative humidity for KX2-391.MSA, Form A.
Moisture-sorption experiments were performed using a Hiden IGAsorp Moisture Sorption Instrument on KX2-391.2HCl obtained in accordance with the process of the present invention (Example 3). First, the sample was dried at 0% Relative Humidity (RH) and 25° C. until an equilibrium weight was reached or for a maximum of four hours. The sample was then subjected to an isothermal (25° C.) adsorption scan from 10 to 90% RH in steps of 10%. The sample was allowed to equilibrate to an asymptotic weight at each point for a maximum of four hours. Following adsorption, a desorption scan from 85 to 0% RH (at 25° C.) was run in steps of −10% again allowing a maximum of four hours for equilibration to an asymptotic weight. The sample was then dried for one hour at 80° C. and the resulting solid analyzed by XRPD.

Data set [2] in a line: Solubility in DI water and pH 2.0 phosphate buffer. In kind it is physicochemical. The procedure: The table below summarizes additional characterization data for the fumaric and maleate KX2-391.MSA salts and compares it to free base, bis-HCl, and MSA salts described above. The results in the table below were obtained using the procedures described above in Examples 5 (XRPD), 6 (DSC), 7 (TGA), and 8 (moisture-sorption).
Solubility experiments were also performed using pH 2.0 phosphate buffer and DI water pH 6.9 and KX2-391.MSA, Form A. Each vial was filled with approximately 50 mg of KX2-391.MSA, Form A and 100 μL aliquots of the corresponding solvent was added until complete dissolution was observed, followed by stirring at room temperature for one and five days. The solids obtained were isolated by filtration, dried under vacuum at room temperature and analyzed by HPLC. The initial HPLC purity of KX2-391.MSA, Form A was 99.4 (% area). The solubility by HPLC of KX2-391.MSA, Form A in phosphate buffer/RT was >500 mg/mL and HPLC purity was measured to be 99.4. The solubility by HPLC of KX2-391.MSA, Form A in DI H2O/RT was >500 mg/mL and HPLC purity was measured to be 99.4.

Data set [3] can be described thus: 5 mg/mL DI water dissolution experiment. The class given is physicochemical. Details: key to dissolution state: P—Particulates partially dissolved; D—Particulates fully dissolved. Conditions: for dissolution in 5 mg/mL DI water experiment: 5 mg in 1 mL DI water. As to the method:
Dissolution experiments were performed on KX2-391 salts to provide a better understanding of the salts interaction in water. This was accomplished using a 5 mg/mL DI water dissolution experiment where 5 mg of each salt was weighed into a vial and 1 mL of DI wather was added. The solution was monitored visually with magnetic stirring over a 20 minute time period to observe the time of dissolution.

Data set [4] can be described thus: Threshold solubility of salt screen 96 well plate. The following applies: DI water. As to the method:
Following each addition, the plate was shaken to encourage mixing for at least 5 minutes prior to evaluation.

The mark [5] stands for this setting: about 5 mg in 1 mL DI water, magnetic stirring, 0 s.
Where [6] appears, read: about 5 mg in 1 mL DI water, magnetic stirring, 30 s.
The mark [7] stands for this setting: about 5 mg in 1 mL DI water, magnetic stirring, 1 min.
The mark [8] stands for this setting: about 5 mg in 1 mL DI water, magnetic stirring, 2 min.
Where [9] appears, read: about 5 mg in 1 mL DI water, magnetic stirring, 5 min.
Setting [10] is: about 5 mg in 1 mL DI water, magnetic stirring, 10 min (1 mL DI water added).
The mark [11] stands for this setting: about 5 mg, after additional 1 mL DI water, 15 min.
[12] abbreviates: about 5 mg, after additional 1 mL DI water, 20 min.
Where [13] appears, read: salt screen well: 1 Equivalent of Acid, ACN.
The mark [14] stands for this setting: salt screen well: 1 Equivalent of Acid, Acetone.
Where [15] appears, read: salt screen well: 1 Equivalent of Acid, Dioxane.
Where [16] appears, read: salt screen well: 1 Equivalent of Acid, EtOH.
The mark [17] stands for this setting: salt screen well: 1 Equivalent of Acid, IPA.
Setting [18] is: salt screen well: 1 Equivalent of Acid, THF.
[19] abbreviates: salt screen well: 2 Equivalents of Acid, Acetone.
Where [20] appears, read: salt screen well: 2 Equivalents of Acid, Dioxane.
Setting [21] is: salt screen well: 2 Equivalents of Acid, THF.

Consider Maleate, for which, in data set [1], the “Moisture Sorption Wt % Water @ 90% RH” value is 1.4 wt %. The entries for the “Solubility mg/mL” value in data set [2] (DI H2O) and in data set [2] (pH 2) were “DI H20: 7.3 mg/mL” and “pH 2: 21.2 mg/mL”, respectively. The “pH of solubility sample” value is on record as “(4.5*)” in data set [2] (DI H2O, * approximate, pH paper instead of meter) and “(4.5*)” in data set [2] (pH 2 medium, * approximate, pH paper instead of meter). Besides, the “dissolution in 5 mg/mL DI water experiment” value in data set [3] (magnetic stirring) is listed as “not observed to dissolve solids within 10 minutes”. In addition, the dissolution state result in data set [3] (setting [5]), in data set [3] (setting [6]), in data set [3] (setting [7]), in data set [3] (setting [8]), in data set [3] (setting [9]) and in data set [3] (setting [10]) was “P” throughout. Moreover, the dissolution state entry in data set [3] (setting [11]) and in data set [3] (setting [12]) was “P” in each case. For the same compound, the Threshold solubility rank result in data set [4] (setting [13]), in data set [4] (setting [14]), in data set [4] (setting [15]), in data set [4] (setting [16]), in data set [4] (setting [17]) and in data set [4] (setting [18]) was “N” in each case. For the same compound, the Threshold solubility rank in data set [4] (setting [19]), in data set [4] (setting [20]) and in data set [4] (setting [21]) was 1 throughout.

Turning to `Cc1ccc(S(=O)(=O)O)cc1.O=C(Cc1ccc(-c2ccc(OCCN3CCOCC3)cc2)cn1)NCc1ccccc1` [p-TSA], the Threshold solubility rank in data set [4] (setting [13]), in data set [4] (setting [14]), in data set [4] (setting [15]), in data set [4] (setting [16]), in data set [4] (setting [17]) and in data set [4] (setting [18]) was 5 throughout.

Turning to `O=C(O)CC(O)C(=O)O` (stereo not shown) [Malic], the Threshold solubility rank in data set [4] (setting [15]) was 1.

For the compound `O=C(Cc1ccc(-c2ccc(OCCN3CCOCC3)cc2)cn1)NCc1ccccc1.O=C(O)C=CC(=O)O` [Fumaric], in data set [1], the “Moisture Sorption Wt % Water @ 90% RH” value is 0.5 wt %. In addition, the “Solubility mg/mL” value was “DI H20: 7.6 mg/mL” in data set [2] and “pH 2: 21.5 mg/mL” in data set [2] (pH 2). Also, the “pH of solubility sample” value in data set [2] and in data set [2] (pH 2) was “(4.5*)” each time. Besides, the “dissolution in 5 mg/mL DI water experiment” value in data set [3] (magnetic stirring) is given as “not observed to dissolve solids within 10 minutes”. The dissolution state result in data set [3] (setting [5]), in data set [3] (setting [6]), in data set [3] (setting [7]), in data set [3] (setting [8]), in data set [3] (setting [9]) and in data set [3] (setting [10]) was “P” throughout. The dissolution state result in data set [3] (setting [11]) is “P”; in data set [3] (setting [12]), “D”. Also, the Threshold solubility rank in data set [4] (setting [13]) is 5; in data set [4] (setting [14]), 5; in data set [4] (setting [15]) it was 4; in data set [4] (setting [16]), 2; in data set [4] (setting [17]), 2; in data set [4] (setting [18]) it was 5. Also, the Threshold solubility rank in data set [4] (salt screen well: 2 Equivalents of Acid, ACN) is 5; in data set [4] (setting [19]), 5; in data set [4] (setting [20]) it was 2; in data set [4] (salt screen well: 2 Equivalents of Acid, IPA) it was 2; in data set [4] (setting [21]), 5.
